In test [1] the test system is proteins of the extracellular matrix (chiefly collagens). Description: Non-enzymatic glycation: incorporation of [3H]-glucose in extracellular matrix proteins deposited by dermal fibroblasts. It counts as biochemical, human. The following applies: 1 mg/ml. The procedure:
The non-enzymatic insertion of AGEs in synthesised collagen fibres deposited by human dermal fibroblasts cultured in vitro was examined. A radioactive detection method was used that was based on the incorporation of tritiated glucose in the proteins of the extracellular matrix.
Normal human dermal fibroblasts were cultured in the presence of vitamin C to stimulate the synthesis of collagen. The cells then underwent different operations (freezing/thawing/heating) to inactivate all enzymatic activity.
The matrix layers thus obtained were treated in the presence of the above-described lupin peptide extract at 0.2 and 2%, aminoguanidine HCl at 1 mg/ml (control), 0.2% glucose and [^3H]-glucose radioactive marker for 15 days at 37° C., in the absence of oxygen (rapid re-oxygenation was performed after 7 treatment days).
After incubation, the proteins of the extracellular matrix (chiefly collagens) were extracted using a chaotropic buffer, precipitated with trichloroacetic acid and collected on filters. The radioactivity incorporated in the ECM fibres was measured by liquid scintillation.
The results were analysed statistically using one-factor analysis of variance followed by a Dunnett test, and are given in the Table below: […]

The test system of test [2] is “aged” dermal equivalents seeded with senescent fibroblasts. Kind of test: Contraction of “aged” dermal equivalents (surface area). It counts as cell-based. The following applies: 10 ng/ml; for % “aged” control: area relative to “aged” control; for Area in mm^2 (mean ± SEM): “aged” DEs. The procedure:
A model of dermal equivalents containing fibroblasts allows evaluation of the quality of interactions between fibroblasts and collagen fibres. The free contraction/retraction of these dermal equivalents results from the dynamic activity of the cells which apply tensile forces on the collagen network.
The effect of lupin peptide extract on the contraction of dermal equivalents was evaluated. To induce a condition of fibroblast loss of contractile forces, the dermal equivalents were seeded with senescent so-called “aged” fibroblasts (obtained by successive passaging in accordance with the Hayflick model).
“Aged” or normal dermal equivalents were prepared by mixing the fibroblasts (at passage 8 for normal dermal equivalents or at passage 17 for “aged” dermal equivalents) with a collagen solution.
After full gelling, the dermal equivalents were treated with TGFβ at 10 ng/ml (control) or 0.1% lupin peptide extract and incubated for 4 days.
The dermal equivalents were photographed at D1, D3 and D4 to measure their surface area for determination of contraction.

Consider two molecules from patent publication US10463593B2, “Lupin peptide extracts and skin firmness” (LABORATOIRES EXPANSCIENCE, priority 2014, dated 2019).

For the molecule `Cl.N=C(N)NN` [Aminoguanidine, aminoguanidine HCl], the “Incorporation [^3H]-glucose (cpm)” value in test [1] (15 days at 37° C., control 5527 ± 464) is reported as 1219 ± 92 cpm. Moreover, the Inhibition of glycation in test [1] (versus control, p < 0.001) was −78% p < 0.001.
Turning to TGFβ, in test [2] (significant after a treatment time of 4 days), the “Contraction of “aged” DEs (in words)” value is on record as “stimulates the contraction of “aged” DEs”. Also, the “% “aged” control” value in test [2] (D1) is on record as 94%; in test [2] (D3), 95%; in test [2] (D4, p < 0.05), 85 (p < 0.05) %. In addition, the “Area in mm^2 (mean ± SEM)” value came out at 264.6 ± 5.5 mm^2 in test [2] (D1), 285.9 ± 6.7 mm^2 in test [2] (D3) and 201.3 ± 8.4 mm^2 in test [2] (D4).
